Calls of active or inactive are those of the source. The calls are words filed in the database; no cut-off is given here.
Assays:
Osteoblast = assay: Osteogenic activity in neonatal Sprague-Dawley rat osteoblasts assessed as stimulation of alkaline phosphatase activity at 100 pM to 10 nM; type: functional, cell-based
Calvarial cell = assay: Osteogenic activity in neonatal Sprague-Dawley rat calvarial cell culture assessed as stimulation of differentiation; type: functional, cell-based

Row | Activity (Osteoblast) | Structure (SMILES) | Activity (Calvarial cell)
1 | Active | O=C1C[C@H](c2ccc(O)cc2)Oc2cc(O)c([C@@H]3O[C@H](CO)[C@@H](O)[C@H](O)[C@H]3O)c(O)c21 | Active
2 | Active | O=C1c2c(cc(O)c([C@@H]3O[C@H](CO)[C@@H](O)[C@H](O)[C@H]3O)c2O)O[C@@H](c2ccc(O)c(O)c2)[C@@H]1O | Active
3 | Active | O=c1c(O)c(-c2ccc(O)c(O)c2)oc2cc(O)c([C@@H]3O[C@H](CO)[C@@H](O)[C@H](O)[C@H]3O)c(O)c12 | Active
4 | Active | O=C1c2c(cc(O)c([C@@H]3O[C@H](CO)[C@@H](O)[C@H](O)[C@H]3O)c2O)O[C@@H](c2ccc(O)cc2)[C@@H]1O | Active

Reference: ChEMBL document CHEMBL1153462, “Ulmosides A and B: flavonoid 6-C-glycosides from Ulmus wallichiana, stimulating osteoblast differentiation assessed by alkaline phosphatase” (Bioorg Med Chem Lett, 2009)
